In article PMC11239830, “Synthetic macrolides overcoming MLSBK-resistant pathogens” (Cell Discovery, 2024):
Values after ≈ are worked out from the molar mass of the structure shown. Like-named read-outs stand apart in the source and are kept apart here.

Columns and labels:
[1] = system: S. pneumoniae; assay: MIC, broth microdilution; type: cell-based, Streptococcus pneumoniae
Procedure, shortened: (§1)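 Minimum inhibitory concentrations were measured by broth microdilution following CLSI guidelines. Plates were incubated at 37 °C for 16–20 h before results were read and recorded, and each determination was repeated at least three times.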

[2] = system: WT S. aureus ribosomes; assay: PURE in vitro translation inhibition assay; type: biochemical, Staphylococcus aureus; settings: mean ± SD
Protocol: (§2) To validate the in vitro activity of our compounds, we employed an in vitro reconstituted E. coli Protein synthesis Using a Recombinant Elements (PURE) translation system, substituting E. coli ribosomes with the purified S. aureus ribosomes.
(§3) 5 μL of PURE reaction mix that translates a gene encoding the Nanoluc luciferase was set up in the presence or absence of tested compounds. Protein synthesis was initiated by incubating reactions at 37 °C for 60 min and stopped by placing on ice for 5 min. Luciferase activity was quantified using the Nano-Glo luciferase assay system and read on a GloMax 20/20 luminometer (Promega, USA). For each compound, the in vitro translation inhibition assay was performed in three biological triplicates over a range of concentrations from 0.001 μM to 1000 μM. A compound-free control was used to normalize luminescence measurements. The calculated luminescence percentages were plotted against compound concentrations on a semilog scale using GraphPad Prism.

[3] = system: 15B196 S. aureus ribosomes (A2058-methylated); assay: PURE in vitro translation inhibition assay; type: biochemical, Staphylococcus aureus; settings: mean ± SD
Protocol: as §2, §3

[4] = system: S. pyogenes; assay: MIC, broth microdilution; type: cell-based, Streptococcus pyogenes
Procedure, shortened: as §1

[5] = system: S. aureus; assay: MIC, broth microdilution; type: cell-based, Staphylococcus aureus
Procedure, shortened: as §1

[6] = CCK-8 assay for cytotoxicity; type: cell-based, human; settings: human, HEK293T cells, HEK293T cell viability
Protocol: (§4) HepG2 cells (6 × 10^3) and HEK293T cells (4 × 10^3) were seeded into 96-well plates in 90 μL of DMEM medium containing 10% FBS per well. […] After overnight incubation, the test compound stock solution was diluted with DMEM medium containing 10% FBS to every target concentration, and 10 μL of each was added to each well. Three parallel experiments were set up for each compound. After incubation for 48 h, 10 μL of cell counting kit-8 (CCK-8) reagent was added to each well in sequence according to the manufacturer’s instructions. […] This experiment was independently repeated three times. The data were processed by GraphPad Prism.

[7] = system: HEK293T cells; assay: CCK-8 assay for cytotoxicity; type: cell-based, human; settings: HEK293T, 5 μM, 48 h
Protocol: as §4

[8] = system: M. catarrhalis; assay: MIC, broth microdilution; type: cell-based, Moraxella catarrhalis; settings: Moraxella catarrhalis; M. catarrhalis 13L332, Ery-S; read-out: MIC
Procedure, shortened: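 CLSI microdilution; 2-fold dilutions in CAMHB; inoculum 5 × 10^5 CFU/mL; 37 °C, 16–20 h; visual endpoint, no growth; n ≥ 3.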

[9] = Staphylococcus aureus, MRSA, MRSA (13)
[10] = Staphylococcus aureus, i-MLSB S. aureus (10)

`CC[C@H]1OC(=O)[C@H](C)[C@@H](OC(=O)NCCCOCCC#Cc2ccc3c(=O)c(C(=O)O)cn(C)c3c2)[C@H](C)[C@@H](O[C@@H]2O[C@H](C)C[C@H](N(C)C)[C@H]2O)[C@](C)(OC)C[C@@H](C)C(=O)[C@H](C)[C@H]2NC(=O)O[C@@]21C` [MCX-190] gave an MIC ([1]; S. pneumoniae 07P390, c-ermB, listed as 95g) of 0.06 µg/mL (≈ 0.0619 µM), an MIC ([1]; S. pneumoniae 21C315, Clinical, c-ermB) of 0.12 µg/mL (≈ 0.124 µM) and an MIC ([1]; S. pneumoniae 21D016, Clinical, c-ermB, mef) of 0.5 µg/mL (≈ 0.516 µM). It also gave an MIC ([1]; S. pneumoniae 21D020, Clinical, c-ermB, mef) of 0.25 µg/mL (≈ 0.258 µM), an MIC ([1]; S. pneumoniae 21M277, Clinical, c-ermB) of 0.5 µg/mL (≈ 0.516 µM) and an MIC ([1]; S. pneumoniae 21Q352, Clinical, i-MLSB) of 0.25 µg/mL (≈ 0.258 µM). The MIC ([1]; S. pneumoniae 21Q353, Clinical, i-MLSB) was 0.25 µg/mL (≈ 0.258 µM), the MIC ([1]; S. pneumoniae 21W257, Clinical, c-ermB, mef) was 0.5 µg/mL (≈ 0.516 µM) and the MIC ([1]; S. pneumoniae 21X435, Clinical) was 0.016 µg/mL (≈ 0.0165 µM). For the same molecule, the MIC ([1]; S. pneumoniae ATCC49619) was 0.016 µg/mL (≈ 0.0165 µM), the MIC ([1]; S. pneumoniae ATCC49619, Ery-S, listed as 95g) was 0.016 µg/mL (≈ 0.0165 µM) and the MIC ([1]; Streptococcus pneumoniae, ATCC49619, S. pneumoniae ATCC49619, Ery-S, read-out: MIC) was 0.03 µg/mL (≈ 0.031 µM). For the same molecule, the MIC ([1]; Streptococcus pneumoniae, S. pneumoniae 05O173, c-ermB, mef, read-out: MIC) was 2 µg/mL (≈ 2.06 µM), the MIC ([1]; Streptococcus pneumoniae, S. pneumoniae 07P390, c-ermB, read-out: MIC) was 0.12 µg/mL (≈ 0.124 µM) and the MIC ([1]; Streptococcus pneumoniae, S. pneumoniae PU09, mef, read-out: MIC) was 0.06 µg/mL (≈ 0.0619 µM). For the same molecule, the IC50 [2] was 0.38 ± 0.1 µM, the IC50 [3] was 0.46 ± 0.23 µM and the MIC ([4]; S. pyogenes 01-968, Clinical, i-ermB) was 0.03 µg/mL (≈ 0.031 µM). It also gave an MIC ([4]; S. pyogenes 12-207, Clinical, mef) of 0.5 µg/mL (≈ 0.516 µM), an MIC ([4]; S. pyogenes 21C303, Clinical, c-ermB) of 1 µg/mL (≈ 1.03 µM) and an MIC ([4]; S. pyogenes 21D184, Clinical, c-ermB) of 1 µg/mL (≈ 1.03 µM). The MIC ([4]; S. pyogenes 21D199, Clinical, c-ermB) was 1 µg/mL (≈ 1.03 µM), the MIC ([4]; S. pyogenes 21D200, Clinical, c-ermB) was 0.5 µg/mL (≈ 0.516 µM) and the MIC ([4]; S. pyogenes 21K003, Clinical, mef) was 1 µg/mL (≈ 1.03 µM). For the same molecule, the MIC ([4]; S. pyogenes 21M063, Clinical, c-ermB) was 0.5 µg/mL (≈ 0.516 µM), the MIC ([4]; S. pyogenes 21W186, Clinical, c-ermTR) was 2 µg/mL (≈ 2.06 µM) and the MIC ([4]; Streptococcus pyogenes, S. pyogenes 12-206, c-ermTR, read-out: MIC) was 0.12 µg/mL (≈ 0.124 µM). It also gave an MIC ([5]; S. aureus 15B196, Clinical, MRSA, c-ermB) of 8 µg/mL (≈ 8.25 µM), an MIC ([5]; S. aureus 21B200, Clinical, MRSA, c-ermB) of 8 µg/mL (≈ 8.25 µM) and an MIC ([5]; S. aureus 21B207, Clinical, MRSA, c-ermB) of 8 µg/mL (≈ 8.25 µM). The MIC ([5]; S. aureus 21B212, Clinical, MSSA, i-ermC) was 0.25 µg/mL (≈ 0.258 µM), the MIC ([5]; S. aureus 21C173, Clinical, MSSA, i-ermC) was 0.25 µg/mL (≈ 0.258 µM) and the MIC ([5]; S. aureus 21C174, Clinical, MSSA, c-ermB) was 1 µg/mL (≈ 1.03 µM). It also gave an MIC ([5]; S. aureus 21C187, Clinical, MRSA, i-ermA) of 0.25 µg/mL (≈ 0.258 µM), an MIC ([5]; S. aureus 21D112, Clinical, MSSA, c-ermB) of 64 µg/mL (≈ 66 µM) and an MIC ([5]; S. aureus 21D115, Clinical, MSSA, i-ermC) of 0.5 µg/mL (≈ 0.516 µM). For the same molecule, the MIC ([5]; S. aureus 21F198, Clinical, MRSA, c-ermB) was 8 µg/mL (≈ 8.25 µM), the MIC ([5]; S. aureus 21F206, Clinical, MSSA, c-ermB) was 32 µg/mL (≈ 33 µM) and the MIC ([5]; S. aureus 21F207, Clinical, MRSA, i-ermC) was 0.25 µg/mL (≈ 0.258 µM). The MIC ([5]; S. aureus 21K194, Clinical, MSSA, i-ermC) was 0.25 µg/mL (≈ 0.258 µM), the MIC ([5]; S. aureus 21N354, Clinical, MRSA, c-ermB) was 8 µg/mL (≈ 8.25 µM) and the MIC ([5]; S. aureus 21P191, Clinical, MSSA, c-ermC) was 64 µg/mL (≈ 66 µM). It also gave an MIC ([5]; S. aureus 21P404, Clinical, MSSA, i-ermC) of 0.5 µg/mL (≈ 0.516 µM), an MIC ([5]; S. aureus 21P407, Clinical, MRSA, c-ermB) of 16 µg/mL (≈ 16.5 µM) and an MIC ([5]; S. aureus 21Q253, Clinical, MRSA, c-ermB) of 4 µg/mL (≈ 4.13 µM). The MIC ([5]; S. aureus 21R216, Clinical, MSSA, c-ermC) was 64 µg/mL (≈ 66 µM), the MIC ([5]; S. aureus 21T141, Clinical, MRSA, c-ermB) was 4 µg/mL (≈ 4.13 µM) and the MIC ([5]; S. aureus 21X388, Clinical, i-ermA (MRSA in Table S9, MSSA in Fig. 2a)) was 0.25 µg/mL (≈ 0.258 µM). For the same molecule, the MIC ([5]; S. aureus 21Y223, Clinical, MRSA, i-ermC) was 0.5 µg/mL (≈ 0.516 µM), the MIC ([5]; S. aureus ATCC29213) was 0.25 µg/mL (≈ 0.258 µM) and the MIC ([5]; S. aureus PU32, Clinical, MRSA, i-ermA) was 0.25 µg/mL (≈ 0.258 µM). It also gave an MIC50 ([5]; Staphylococcus aureus, All S. aureus (24)) of 1 µg/mL (≈ 1.03 µM), an MIC50 [5, 9] of 4 µg/mL (≈ 4.13 µM) and an MIC90 [5, 9] of 8 µg/mL (≈ 8.25 µM). The MIC50 ([5]; Staphylococcus aureus, MSSA, MSSA (10)) was 0.5 µg/mL (≈ 0.516 µM), the MIC ([5]; Staphylococcus aureus, S. aureus 15B196, c-ermB, read-out: MIC) was 8 µg/mL (≈ 8.25 µM) and the MIC ([5]; Staphylococcus aureus, S. aureus PU32, i-ermA, read-out: MIC) was 0.5 µg/mL (≈ 0.516 µM). For the same molecule, the MIC50 ([5]; Staphylococcus aureus, c-MLSB (constitutive) S. aureus (13)) was 8 µg/mL (≈ 8.25 µM), the MIC90 ([5]; Staphylococcus aureus, c-MLSB S. aureus (13)) was 64 µg/mL (≈ 66 µM) and the MIC50 [5, 10] was 0.25 µg/mL (≈ 0.258 µM). For the same molecule, the MIC90 [5, 10] was 0.5 µg/mL (≈ 0.516 µM), the MIC90 ([5]; Staphylococcus aureus, MSSA (10)) was 64 µg/mL (≈ 66 µM) and the CC50 at 48 h [6] was > 100 µM. For the same molecule, the “cytotoxicity at 5 μM” value [7] was “significantly reduced cytotoxicity compared to TcmX” and the MIC [8] was 0.25 µg/mL (≈ 0.258 µM).
